According to ChEMBL document CHEMBL1201862, “PubChem BioAssay data set” (2004):
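Protocol summary: plate cells (96-well), add compound at 5 concentrations, incubate 48 h, interpolate endpoints linearly. GI50: concentration for 50% inhibition of growth.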 Calls of active or inactive are those of the source. Cut-off read from the data, not from the text of the source: active = GI50 up to about 1.1 µM and inactive = higher.

Tests used:
Assay in all cases: inhibition of tumour cell growth, NCI panel, 48 h
[1] = system: 786-0
[2] = system: A498
[3] = system: A549
[4] = system: ACHN
[5] = system: CCRF-CEM
[6] = system: COLO 205
[7] = system: DLD-1
[8] = system: DMS-114
[9] = system: DMS-273
[10] = system: EKVX
[11] = system: HCC 2998
[12] = system: HCT-116
[13] = system: HCT-15
[14] = system: HL-60
[15] = system: HOP-18
[16] = system: HOP-62
[17] = system: HOP-92
[18] = system: HT-29
[19] = system: IGROV-1
[20] = system: K562
[21] = system: KM-20L2
[22] = system: KM12
[23] = system: LOX IMVI
[24] = system: LXFL 529
[25] = system: M14
[26] = system: M19-MEL
[27] = system: MOLT-4
[28] = system: Malme-3M
[29] = system: NCI-H23
[30] = system: NCI-H460
[31] = system: NCI-H522
[32] = system: OVCAR-3
[33] = system: OVCAR-4
[34] = system: OVCAR-5
[35] = system: OVCAR-8
[36] = system: RPMI-8226
[37] = system: RXF 393
[38] = system: RXF 631
[39] = system: SF-268
[40] = system: SF-295
[41] = system: SF-539
[42] = system: SK-MEL-28
[43] = system: SK-MEL-2
[44] = system: SK-OV-3
[45] = system: SN12C
[46] = system: SNB-19
[47] = system: SNB-75
[48] = system: SNB-78
[49] = system: SW-620
[50] = system: TK-10
[51] = system: U-251
[52] = system: UACC-257
[53] = system: UACC-62
[54] = system: UO-31
[55] = system: BT-549
[56] = system: CAKI-1
[57] = system: DU-145
[58] = system: Hs-578T
[59] = system: MCF7
[60] = system: MDA-MB-231
[61] = system: MDA-MB-435
[62] = system: MDA-N
[63] = system: NCI-H226
[64] = system: NCI/ADR-RES
[65] = system: PC-3
[66] = system: SK-MEL-5
[67] = system: SR
[68] = system: T47D
[69] = system: XF498

In the case of `C=CCN(N=O)C(=O)ON1C(=O)CCC1=O`, the GI50 [1] was > 100 µM (inactive), the GI50 [2] was > 100 µM (inactive) and the GI50 [3] was > 100 µM (inactive). For the same compound, the GI50 [4] was > 100 µM (inactive), the GI50 [5] was 85.9 µM (inactive) and the GI50 [6] was > 100 µM (inactive). The GI50 [7] was > 100 µM (inactive), the GI50 [8] was > 100 µM (inactive) and the GI50 [9] was > 100 µM (inactive). The GI50 [10] was > 100 µM (inactive), the GI50 [11] was > 100 µM (inactive) and the GI50 [12] was > 100 µM (inactive). For the same compound, the GI50 [13] was over 100 µM, the GI50 [14] was > 100 µM (inactive) and the GI50 [15] was > 100 µM (inactive). For the same compound, the GI50 [16] was > 100 µM (inactive), the GI50 [17] was > 100 µM (inactive) and the GI50 [18] was > 100 µM (inactive). For the same compound, the GI50 [19] was > 100 µM (inactive), the GI50 [20] was > 100 µM (inactive) and the GI50 [21] was > 100 µM (inactive). The GI50 [22] was > 100 µM (inactive), the GI50 [23] was > 100 µM (inactive) and the GI50 [24] was > 100 µM (inactive). The GI50 [25] was > 100 µM (inactive), the GI50 [26] was > 100 µM (inactive) and the GI50 [27] was > 100 µM (inactive). The GI50 [28] was > 100 µM (inactive), the GI50 [29] was > 100 µM (inactive) and the GI50 [30] was > 100 µM (inactive). For the same compound, the GI50 [31] was 64.7 µM (inactive), the GI50 [32] was > 100 µM (inactive) and the GI50 [33] was > 100 µM (inactive). For the same compound, the GI50 [34] was 0.0681 µM (active), the GI50 [35] was > 100 µM (inactive) and the GI50 [36] was > 100 µM (inactive). For the same compound, the GI50 [37] was > 100 µM (inactive), the GI50 [38] was > 100 µM (inactive) and the GI50 [39] was > 100 µM (inactive). For the same compound, the GI50 [40] was > 100 µM (inactive), the GI50 [41] was > 100 µM (inactive) and the GI50 [42] was > 100 µM (inactive). For the same compound, the GI50 [43] was > 100 µM (inactive), the GI50 [44] was > 100 µM (inactive) and the GI50 [45] was > 100 µM (inactive). For the same compound, the GI50 [46] was > 100 µM (inactive), the GI50 [47] was 75.9 µM (inactive) and the GI50 [48] was > 100 µM (inactive). For the same compound, the GI50 [49] was > 100 µM (inactive), the GI50 [50] was > 100 µM (inactive) and the GI50 [51] was 17.7 µM (inactive). The GI50 [52] was > 100 µM (inactive), the GI50 [53] was > 100 µM (inactive) and the GI50 [54] was > 100 µM (inactive).
`Cc1c(N)nc(C(CC(N)=O)NCC(N)C(N)=O)nc1C(=O)NC(C(=O)NC(C)C(O)C(C)C(=O)NC(C(=O)NCCc1nc(-c2nc(C(=O)NCCCNC(C)c3ccccc3)cs2)cs1)C(C)O)C(OC1OC(CO)C(O)C(O)C1OC1OC(CO)C(O)C(OC(N)=O)C1O)c1c[nH]cn1` (configuration not stated) was tested, and the GI50 [1] was 0.419 µM (active), the GI50 [2] was 1.69 µM (inactive) and the GI50 [3] was 0.847 µM (active). For the same compound, the GI50 [4] was 0.0208 µM (active), the GI50 [55] was 18.2 µM (inactive) and the GI50 [56] was 0.0258 µM (active). The GI50 [5] was 4.33 µM (inactive), the GI50 [6] was 11.3 µM (inactive) and the GI50 [7] was 32.8 µM (inactive). For the same compound, the GI50 [8] was 0.59 µM (active), the GI50 [9] was 0.0752 µM (active) and the GI50 [57] was 7.29 µM (inactive). For the same compound, the GI50 [10] was 47.1 µM (inactive), the GI50 [11] was 21.6 µM (inactive) and the GI50 [12] was 0.328 µM (active). The GI50 [13] was 5.24 µM, the GI50 [14] was 7.59 µM (inactive) and the GI50 [15] was 21.3 µM (inactive). The GI50 [16] was 0.0998 µM (active), the GI50 [17] was 0.19 µM (active) and the GI50 [18] was 21.1 µM (inactive). The GI50 [58] was 0.0482 µM (active), the GI50 [19] was 9.51 µM (inactive) and the GI50 [20] was 10.1 µM (inactive). The GI50 [21] was 40.4 µM (inactive), the GI50 [22] was 16.6 µM (inactive) and the GI50 [23] was 0.108 µM (active). For the same compound, the GI50 [24] was 23.9 µM (inactive), the GI50 [25] was 3.27 µM (inactive) and the GI50 [26] was 15 µM (inactive). The GI50 [59] was 4.4 µM (inactive), the GI50 [60] was > 50 µM (inactive) and the GI50 [61] was > 50 µM (inactive). The GI50 [62] was > 50 µM (inactive), the GI50 [27] was 1.83 µM (inactive) and the GI50 [28] was 1.42 µM (inactive). The GI50 [63] was 0.184 µM (active), the GI50 [29] was 0.753 µM (active) and the GI50 [30] was 0.0482 µM (active). The GI50 [31] was 2.65 µM (inactive), the GI50 [64] was 1.57 µM (inactive) and the GI50 [32] was 8.05 µM (inactive). The GI50 [33] was 7.4 µM (inactive), the GI50 [34] was 5.96 µM (inactive) and the GI50 [35] was 5.11 µM (inactive). For the same compound, the GI50 [65] was > 50 µM (inactive), the GI50 [36] was 3.21 µM (inactive) and the GI50 [37] was 0.156 µM (active). The GI50 [39] was 2.9 µM (inactive), the GI50 [40] was 0.163 µM (active) and the GI50 [41] was 0.0233 µM (active). For the same compound, the GI50 [42] was 31.5 µM (inactive), the GI50 [43] was 16.8 µM (inactive) and the GI50 [66] was 1.05 µM (active). The GI50 [44] was 10.2 µM (inactive), the GI50 [45] was 2.07 µM (inactive) and the GI50 [46] was 8.39 µM (inactive). For the same compound, the GI50 [47] was 0.296 µM (active), the GI50 [48] was > 50 µM (inactive) and the GI50 [67] was 2.3 µM (inactive). For the same compound, the GI50 [49] was 17.7 µM (inactive), the GI50 [68] was 5.26 µM (inactive) and the GI50 [50] was 40.5 µM (inactive). The GI50 [51] was 1.26 µM (inactive), the GI50 [52] was 22.3 µM (inactive) and the GI50 [53] was 0.706 µM (active). For the same compound, the GI50 [54] was 0.283 µM (active) and the GI50 [69] was 0.973 µM (active).
